Measured values as given in PubChem BioAssay (NCI).
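In this assay, cells in 96-well plates receive the compound at five concentrations for 48 hours. Endpoints are linearly interpolated between the surrounding concentrations. Abbreviation: GI50, concentration required for 50% inhibition of growth. TGI is the concentration that stops growth completely.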

Experiments:
Assay in all cases: growth of human tumour cells (NCI), 48 h; in the data active = GI50 below about 0.43 µM; inactive = the rest
UO-31 renal = system: UO-31 renal
HT29 colon = system: HT29 colon
MALME-3M melanoma = system: MALME-3M melanoma
UACC-257 melanoma = system: UACC-257 melanoma
MOLT-4 leukemia = system: MOLT-4 leukemia
HL-60(TB) leukemia = system: HL-60(TB) leukemia
CCRF-CEM leukemia = system: CCRF-CEM leukemia
OVCAR-5 ovarian = system: OVCAR-5 ovarian
HOP-62 NSCLC = system: HOP-62 NSCLC
A498 renal = system: A498 renal
SR leukemia = system: SR leukemia
MDA-MB-231 breast = system: MDA-MB-231 breast
ACHN renal = system: ACHN renal
NCI/ADR-RES ovarian = system: NCI/ADR-RES ovarian
SF-295 CNS = system: SF-295 CNS
SK-OV-3 ovarian = system: SK-OV-3 ovarian
SK-MEL-5 melanoma = system: SK-MEL-5 melanoma
EKVX NSCLC = system: EKVX NSCLC
OVCAR-4 ovarian = system: OVCAR-4 ovarian
SNB-75 CNS = system: SNB-75 CNS
UACC-62 melanoma = system: UACC-62 melanoma
SF-539 CNS = system: SF-539 CNS
T-47D breast = system: T-47D breast
OVCAR-8 ovarian = system: OVCAR-8 ovarian
HS 578T breast = system: HS 578T breast
SN12C renal = system: SN12C renal
HOP-92 NSCLC = system: HOP-92 NSCLC
TK-10 renal = system: TK-10 renal
HCT-15 colon = system: HCT-15 colon
SK-MEL-2 melanoma = system: SK-MEL-2 melanoma
MCF7 breast = system: MCF7 breast
SF-268 CNS = system: SF-268 CNS
PC-3 prostate = system: PC-3 prostate
CAKI-1 renal = system: CAKI-1 renal
RXF 393 renal = system: RXF 393 renal
DU-145 prostate = system: DU-145 prostate

O=C(/C=C(/C=C/c1ccc2[nH]ccc2c1)OB(F)F)/C=C/c1ccc2[nH]ccc2c1
inactive: GI50 (UO-31 renal) 1350 nM | GI50 (HT29 colon) 1470 nM | GI50 (MALME-3M melanoma) 2620 nM | GI50 (UACC-257 melanoma) 12.2 µM | GI50 (MOLT-4 leukemia) 2060 nM | GI50 (HL-60(TB) leukemia) 1880 nM | GI50 (OVCAR-5 ovarian) 2750 nM | GI50 (HOP-62 NSCLC) 3.38 µM | GI50 (A498 renal) 2610 nM | GI50 (SR leukemia) 451 nM | GI50 (MDA-MB-231 breast) 3.38 µM | GI50 (ACHN renal) 2520 nM | GI50 (NCI/ADR-RES ovarian) 2700 nM | GI50 (SF-295 CNS) 2280 nM | GI50 (SK-OV-3 ovarian) 3.43 µM | GI50 (SK-MEL-5 melanoma) 2980 nM | GI50 (EKVX NSCLC) 3.17 µM | GI50 (OVCAR-4 ovarian) 726 nM | GI50 (SNB-75 CNS) 2720 nM | GI50 (UACC-62 melanoma) 1850 nM | GI50 (SF-539 CNS) 2680 nM | GI50 (T-47D breast) 1990 nM | GI50 (OVCAR-8 ovarian) 2510 nM | GI50 (HS 578T breast) 3.96 µM | GI50 (SN12C renal) 2600 nM | GI50 (HOP-92 NSCLC) 2680 nM | GI50 (TK-10 renal) 4.78 µM | GI50 (HCT-15 colon) 653 nM | GI50 (SK-MEL-2 melanoma) 4.6 µM | GI50 (SF-268 CNS) 1510 nM | GI50 (PC-3 prostate) 1490 nM | GI50 (CAKI-1 renal) 2560 nM | GI50 (RXF 393 renal) 1560 nM | GI50 (DU-145 prostate) 1640 nM
5.02 µM: TGI (UACC-62 melanoma)
6.46 µM: TGI (OVCAR-4 ovarian)
18.9 µM: TGI (SN12C renal)
6.41 µM: TGI (SF-268 CNS)
15 µM: TGI (MCF7 breast)
10.1 µM: TGI (CAKI-1 renal)
6.71 µM: TGI (A498 renal)
13.3 µM: TGI (SK-MEL-5 melanoma)
4.2 µM: TGI (DU-145 prostate)
9.29 µM: TGI (SF-539 CNS)
15.7 µM: TGI (SNB-75 CNS)
5.55 µM: TGI (UO-31 renal)
7.57 µM: TGI (ACHN renal)
active: GI50 (CCRF-CEM leukemia) 423 nM | GI50 (MCF7 breast) 376 nM
86.9 µM: TGI (EKVX NSCLC)
3.63 µM: TGI (RXF 393 renal)
86.2 µM: TGI (SK-MEL-2 melanoma)
4.43 µM: TGI (HCT-15 colon)
> 100 µM: TGI (HT29 colon) | TGI (MALME-3M melanoma) | TGI (UACC-257 melanoma) | TGI (MOLT-4 leukemia) | TGI (HL-60(TB) leukemia) | TGI (CCRF-CEM leukemia) | TGI (OVCAR-5 ovarian) | TGI (HOP-62 NSCLC) | TGI (SR leukemia) | TGI (MDA-MB-231 breast) | TGI (NCI/ADR-RES ovarian) | TGI (SF-295 CNS) | TGI (SK-OV-3 ovarian) | TGI (T-47D breast) | TGI (OVCAR-8 ovarian) | TGI (HS 578T breast) | TGI (HOP-92 NSCLC) | TGI (TK-10 renal) | TGI (PC-3 prostate)
